Results from patent US11180462B2, “Microbiocidal oxadiazole derivatives” (SYNGENTA PARTICIPATIONS AG, priority 2015, dated 2021).

How the values were obtained:
[1] = test system: Puccinia recondita f. Sp. Tritici; test: Fungicidal activity against Puccinia recondita f. sp. tritici / wheat / leaf disc curative (brown rust); format: in vivo; details: foliar, 24 h, 200 ppm in the applied formulation, wheat leaf segments, curative (applied 1 day after inoculation), compared to untreated control leaf disks, read-out: disease control
How it was run: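 Segments of wheat cv. Kanzler were laid on agar and inoculated with a spore suspension of the rust, then held in darkness at 19° C and 75% relative humidity. One day later the water-diluted formulated compound was applied, with incubation continued under a 12 h light/dark cycle.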

Phakopsora Pachyrhizi = test: Fungicidal activity against Phakopsora pachyrhizi / soybean / leaf disc preventative (Asian soybean rust); format: in vivo; details: foliar, 200 ppm in the applied formulation, soybean leaf disks, compared to untreated control leaf disks, read-out: disease control
How it was run: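 Scored 12 to 14 days post-application as percent control relative to untreated check discs, rust spores were sprayed under the disc one day after compound treatment. Incubation: 20°C, 75% rh, first 24–36 h in darkness, then 12 h daily light; discs kept on water agar.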

[2] = test system: Glomerella lagenarium (Colletotrichum lagenarium); test: Fungicidal activity against Glomerella lagenarium (Colletotrichum lagenarium) liquid culture / cucumber / preventative (anthracnose); format: cell-based; details: Colletotrichum orbiculare; 20 ppm in the applied formulation; liquid culture (PDB), growth inhibition measured photometrically after 3 to 4 days; compared to untreated control; read-out: disease control
How it was run: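 Percent activity against the untreated check was derived from photometric growth measurements made 2 to 7 days after conidia in potato dextrose broth were combined with compound at 20 ppm. Cultures were kept dark at 24 °C and 96% humidity.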

[3] = test system: Puccinia recondita f. Sp. Tritici; test: Fungicidal activity against Puccinia recondita f. sp. tritici / wheat / leaf disc preventative (brown rust); format: in vivo; details: foliar, 200 ppm in the applied formulation, wheat leaf segments, preventative, compared to untreated control leaf disks, read-out: disease control
How it was run: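 Percent disease control relative to untreated check segments is scored once disease develops, 7 to 9 days after application. Wheat cv. Kanzler segments receive compound spray (200 ppm in formulation) one day before spore inoculation, then sit at 19° C. and 75% rh under 12 h light/12 h dark.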

## CON(Cc1ccc(-c2noc(C(F)(F)F)n2)cc1)C(=O)C1C(C)(C)C1(C)C [Compound 1.14, N-methoxy-2,2,3,3-tetramethyl-N-[[4-[5-(trifluoromethyl)-1,2,4-oxadiazol-3-yl]phenyl]methyl]-cyclopropane-carboxamide]
[1]
  pest or weed control at 200 ppm: ≥ 80%
Phakopsora Pachyrhizi
  pest or weed control at 200 ppm: ≥ 80%

## CON(Cc1ccc(-c2noc(C(F)(F)F)n2)cc1)C(=O)C1(c2ccccc2)CC1 [Compound 1.23, N-methoxy-1-phenyl-N-[[4-[5-(trifluoromethyl)-1,2,4-oxadiazol-3-yl]phenyl]methyl]-cyclopropane-carboxamide]
[1]
  pest or weed control at 200 ppm: ≥ 80%
Phakopsora Pachyrhizi
  pest or weed control at 200 ppm: ≥ 80%
[2]
  inhibition of growth at 20 ppm: ≥ 80%

## CON(Cc1ccc(-c2noc(C(F)(F)F)n2)cc1)C(=O)c1ccc(Cl)cc1 [Compound 1.71, 4-chloro-N-methoxy-N-[[4-[5-(trifluoromethyl)-1,2,4-oxadiazol-3-yl]phenyl]methyl]-benzamide]
[1]
  pest or weed control at 200 ppm: ≥ 80%
Phakopsora Pachyrhizi
  pest or weed control at 200 ppm: ≥ 80%
[2]
  inhibition of growth at 20 ppm: ≥ 80%

## C#CCN(Cc1ccc(-c2noc(C(F)(F)F)n2)cc1)C(=O)C1CSC1 [Compound 1.172, N-prop-2-ynyl-N-[[4-[5-(trifluoromethyl)-1,2,4-oxadiazol-3-yl]phenyl]methyl]-thietane-3-carboxamide]
[3]
  pest or weed control at 200 ppm: ≥ 80%
[1]
  pest or weed control at 200 ppm: ≥ 80%
Phakopsora Pachyrhizi
  pest or weed control at 200 ppm: ≥ 80%

## C#CCN(Cc1ccc(-c2noc(C(F)(F)F)n2)cc1)C(=O)C(C)OC (stereo not shown) [Compound 1.200, 2-methoxy-N-prop-2-ynyl-N-[[4-[5-(trifluoromethyl)-1,2,4-oxadiazol-3-yl]phenyl]methyl]-propanamide]
[3]
  pest or weed control at 200 ppm: ≥ 80%
[1]
  pest or weed control at 200 ppm: ≥ 80%
Phakopsora Pachyrhizi
  pest or weed control at 200 ppm: ≥ 80%

## O=C(C1CC1(F)F)N(Cc1ccc(-c2noc(C(F)(F)F)n2)cc1)CC1CC1 (stereo not shown) [Compound 1.207, N-(cyclopropylmethyl)-2,2-difluoroN-[[4-[5-(trifluoromethyl)-1,2,4-oxadiazol-3-yl]phenyl]methyl]-cyclopropane-carboxamide]
[1]
  pest or weed control at 200 ppm: ≥ 80%
Phakopsora Pachyrhizi
  pest or weed control at 200 ppm: ≥ 80%
[2]
  inhibition of growth at 20 ppm: ≥ 80%

## CCCC(=O)N(Cc1ccc(-c2noc(C(F)(F)F)n2)cc1)CC1CC1 [Compound 1.210, N-(cyclopropylmethyl)-N-[[4-[5-(trifluoromethyl)-1,2,4-oxadiazol-3-yl]phenyl]methyl]-butanamide]
[1]
  pest or weed control at 200 ppm: ≥ 80%
Phakopsora Pachyrhizi
  pest or weed control at 200 ppm: ≥ 80%
[2]
  inhibition of growth at 20 ppm: ≥ 80%

## CCOCC(=O)N(Cc1ccc(-c2noc(C(F)(F)F)n2)cc1)C(C)CC (stereo not shown) [Compound 1.383, 2-ethoxy-N-sec-butyl-N-[[4-[5-(trifluoromethyl)-1,2,4-oxadiazol-3-yl]phenyl]methyl]-acetamide]
[3]
  pest or weed control at 200 ppm: ≥ 80%
[1]
  pest or weed control at 200 ppm: ≥ 80%
Phakopsora Pachyrhizi
  pest or weed control at 200 ppm: ≥ 80%

## CCC(=O)N(Cc1ccc(-c2noc(C(F)(F)F)n2)cc1F)OC [Compound 1.568, N-[[2-fluoro-4-[5-(trifluoromethyl)-1,2,4-oxadiazol-3-yl]phenyl]methyl]-N-methoxy-propanamide]
[1]
  pest or weed control at 200 ppm: ≥ 80%
Phakopsora Pachyrhizi
  pest or weed control at 200 ppm: ≥ 80%
[2]
  inhibition of growth at 20 ppm: ≥ 80%

## CCC(=O)N(Cc1ccc(-c2noc(C(F)(F)F)n2)cn1)OC [Compound 1.571, N-methoxy-N-[[5-[5-(trifluoromethyl)-1,2,4-oxadiazol-3-yl]-2-pyridyl]methyl]-propanamide]
[1]
  pest or weed control at 200 ppm: ≥ 80%
Phakopsora Pachyrhizi
  pest or weed control at 200 ppm: ≥ 80%
[2]
  inhibition of growth at 20 ppm: ≥ 80%

## O=C(C1CC1)N(Cc1ccc(-c2noc(C(F)(F)F)n2)cc1)CC(F)(F)F [Compound 1.586, N-(2,2,2-trifluoroethyl)-N-[[4-[5-(trifluoromethyl)-1,2,4-oxadiazol-3-yl]phenyl]methyl]-cyclopropane-carboxamide]
[1]
  pest or weed control at 200 ppm: ≥ 80%
Phakopsora Pachyrhizi
  pest or weed control at 200 ppm: ≥ 80%
[2]
  inhibition of growth at 20 ppm: ≥ 80%

## CCCCON(Cc1ccc(-c2noc(C(F)(F)F)n2)cc1)C(=O)C(C)CC (stereo not shown) [Compound 1.640, N-butoxy-2-methyl-N-[[4-[5-(trifluoromethyl)-1,2,4-oxadiazol-3-yl]phenyl]methyl]-butanamide]
[3]
  pest or weed control at 200 ppm: ≥ 80%
[1]
  pest or weed control at 200 ppm: ≥ 80%
Phakopsora Pachyrhizi
  pest or weed control at 200 ppm: ≥ 80%

## CCCN(Cc1ccc(-c2noc(C(F)(F)F)n2)cc1)C(=O)CC(F)(F)F [Compound 1.667, 3,3,3-trifluoroN-propyl-N-[[4-[5-(trifluoromethyl)-1,2,4-oxadiazol-3-yl]phenyl]methyl]-propanamide]
[1]
  pest or weed control at 200 ppm: ≥ 80%
Phakopsora Pachyrhizi
  pest or weed control at 200 ppm: ≥ 80%
[2]
  inhibition of growth at 20 ppm: ≥ 80%

## COCCC(=O)N(Cc1ccc(-c2noc(C(F)(F)F)n2)cc1)CC(F)(F)F [Compound 1.693, 3-methoxy-N-(2,2,2-trifluoroethyl)-N-[[4-[5-(trifluoromethyl)-1,2,4-oxadiazol-3-yl]phenyl]methyl]-propanamide]
[1]
  pest or weed control at 200 ppm: ≥ 80%
Phakopsora Pachyrhizi
  pest or weed control at 200 ppm: ≥ 80%
[2]
  inhibition of growth at 20 ppm: ≥ 80%

## O=C(C1CCOC1)N(CCO)Cc1ccc(-c2noc(C(F)(F)F)n2)cc1 (stereo not shown) [Compound 1.711, N-(2-hydroxyethyl)-N-[[4-[5-(trifluoromethyl)-1,2,4-oxadiazol-3-yl]phenyl]methyl]-tetrahydrofuran-3-carboxamide]
[3]
  pest or weed control at 200 ppm: ≥ 80%
[1]
  pest or weed control at 200 ppm: ≥ 80%
Phakopsora Pachyrhizi
  pest or weed control at 200 ppm: ≥ 80%

## O=C(OCCN(Cc1ccc(-c2noc(C(F)(F)F)n2)cc1)C(=O)C1CCOC1)C1CCOC1 (stereo not shown) [Compound 1.712, 2-(tetrahydrofuran-3-carbonyl-[[4-[5-(trifluoromethyl)-1,2,4-oxadiazol-3-yl]phenyl]methyl]-amino]ethyl tetrahydrofuran-3-carboxylate]
[3]
  pest or weed control at 200 ppm: ≥ 80%
[1]
  pest or weed control at 200 ppm: ≥ 80%
Phakopsora Pachyrhizi
  pest or weed control at 200 ppm: ≥ 80%

## CC1(C(=O)N(CCO)Cc2ccc(-c3noc(C(F)(F)F)n3)cc2)COC1 [Compound 1.721, N-(2-hydroxyethyl)-3-methyl-N-[[4-[5-(trifluoromethyl)-1,2,4-oxadiazol-3-yl]phenyl]methyl]-oxetane-3-carboxamide]
[3]
  pest or weed control at 200 ppm: ≥ 80%
[1]
  pest or weed control at 200 ppm: ≥ 80%
Phakopsora Pachyrhizi
  pest or weed control at 200 ppm: ≥ 80%

## CC1(C(=O)OCCN(Cc2ccc(-c3noc(C(F)(F)F)n3)cc2)C(=O)C2(C)COC2)COC1 [Compound 1.722, 2-[(3-methyloxetane-3-carbonyl)-[[4-[5-(trifluoromethyl)-1,2,4-oxadiazol-3-yl]phenyl]methyl]-amino]ethyl 3-methyloxetane-3-carboxylate]
[3]
  pest or weed control at 200 ppm: ≥ 80%
[1]
  pest or weed control at 200 ppm: ≥ 80%
Phakopsora Pachyrhizi
  pest or weed control at 200 ppm: ≥ 80%

## COC(C)C(=O)N(CCO)Cc1ccc(-c2noc(C(F)(F)F)n2)cc1 (stereo not shown) [Compound 1.731, N-(2-hydroxyethyl)-2-methoxy-N-[[4-[5-(trifluoromethyl)-1,2,4-oxadiazol-3-yl]phenyl]methyl]-propanamide]
[3]
  pest or weed control at 200 ppm: ≥ 80%
[1]
  pest or weed control at 200 ppm: ≥ 80%
Phakopsora Pachyrhizi
  pest or weed control at 200 ppm: ≥ 80%

## COC(C)C(=O)OCCN(Cc1ccc(-c2noc(C(F)(F)F)n2)cc1)C(=O)C(C)OC (stereo not shown) [Compound 1.732, 2-[2-methoxypropanoyl-[[4-[5-(trifluoromethyl)-1,2,4-oxadiazol-3-yl]phenyl]methyl]-amino]ethyl 2-methoxypropanoate]
[3]
  pest or weed control at 200 ppm: ≥ 80%
[1]
  pest or weed control at 200 ppm: ≥ 80%
Phakopsora Pachyrhizi
  pest or weed control at 200 ppm: ≥ 80%

## CC1(C(=O)N(Cc2ccc(-c3noc(C(F)(F)F)n3)cc2)C2COC2)COC1 [Compound 1.744, 3-methyl-N-(oxetan-3-yl)-N-[[4-[5-(trifluoromethyl)-1,2,4-oxadiazol-3-yl]phenyl]methyl]-oxetane-3-carboxamide]
[3]
  pest or weed control at 200 ppm: ≥ 80%
[1]
  pest or weed control at 200 ppm: ≥ 80%
Phakopsora Pachyrhizi
  pest or weed control at 200 ppm: ≥ 80%

## COC(C)C(=O)N(Cc1ccc(-c2noc(C(F)(F)F)n2)cc1)C1COC1 (stereo not shown) [Compound 1.750, 2-methoxy-N-(oxetan-3-yl)-N-[[4-[5-(trifluoromethyl)-1,2,4-oxadiazol-3-yl]phenyl]methyl]-propanamide]
[1]
  pest or weed control at 200 ppm: ≥ 80%
Phakopsora Pachyrhizi
  pest or weed control at 200 ppm: ≥ 80%

## COCCOC(=O)N(Cc1ccc(-c2noc(C(F)(F)F)n2)cc1)OC [Compound 2.2, 2-methoxyethyl N-methoxy-N-[[4-[5-(trifluoromethyl)-1,2,4-oxadiazol-3-yl]phenyl]methyl]-carbamate]
[1]
  pest or weed control at 200 ppm: ≥ 80%
Phakopsora Pachyrhizi
  pest or weed control at 200 ppm: ≥ 80%
[2]
  inhibition of growth at 20 ppm: ≥ 80%

## COC(=O)N(Cc1ccc(-c2noc(C(F)(F)F)n2)cc1)OC [Compound 2.3, methyl N-methoxy-N-[[4-[5-(trifluoromethyl)-1,2,4-oxadiazol-3-yl]phenyl]methyl]carbamate]
[1]
  pest or weed control at 200 ppm: ≥ 80%
Phakopsora Pachyrhizi
  pest or weed control at 200 ppm: ≥ 80%
[2]
  inhibition of growth at 20 ppm: ≥ 80%

## CON(Cc1ccc(-c2noc(C(F)(F)F)n2)cc1)C(=O)N1CCOCC1 [Compound 3.1, N-methoxy-N-[[4-[5-(trifluoromethyl)-1,2,4-oxadiazol-3-yl]phenyl]methyl]-morpholine-4-carboxamide]
[1]
  pest or weed control at 200 ppm: ≥ 80%
Phakopsora Pachyrhizi
  pest or weed control at 200 ppm: ≥ 80%
[2]
  inhibition of growth at 20 ppm: ≥ 80%
